Assay results: patent US20150216189A1, “NATAMYCIN-CYCLODEXTRIN COMPLEXES FOR USE IN FOODSTUFF, PROCESS FOR THEIR MANUFACTURE AND USE THEREOF” (priority 2011, published 2015)

Legend:
[1] = Antifungal activity on baked goods
Source text: Studies were done wherein aqueous solutions of natamycin-cyclodextrin complexes have been applied onto shredded cheese or used in pharmaceutical preparations.

mould = experiment: Tortilla spray application shelf life study (mould growth); conditions: 21.7° C., no natamycin (variables 2, 3)
Procedure: A gamma-cyclodextrin-natamycin solution was produced employing a high pH system and the obtained solution was spray dried. Tortillas were treated with a standard natamycin (Natamax® SF) treatment, the spray-dried gamma-cyclodextrin-natamycin product, and traditional chemical preservatives to assess relative antifungal efficacy in baked goods.
Sample Variables in the Tortilla Treatments: • 1. Control—Deionized Water • 2. Control—Gamma-cyclodextrin (0.5% solution) • 3. Traditional Chemical Preservatives (fumarate, sorbate, propionate) • 4. Natamax® SF (target of ˜12 ppm natamycin on finished product) • 5. Gamma-cyclodextrin-natamycin powder (target of ˜12 ppm natamycin on finished product) • 6. Gamma-cyclodextrin-natamycin powder (target of ˜6 ppm natamycin on finished product)
For the spray application, each of the solutions were sprayed on 36 tortillas (about seven inches in diameter) using roughly the same spray volume. The tortillas were held on standard storage racks at 21.7° C. and monitored 0 to 30 days for mould growth.

yeasts and moulds = conditions: cited from earlier work
[2] = cited from earlier work
[3] = Source text: Natamycin is sensitive to both high and low pH values and is degraded under such conditions. Despite this fact, the present invention utilizes such pH ranges. […] Typically the pH value is in the range of 10 to 12. In another embodiment the pH value of the aqueous solution in the complexation step is in the range of 6 or lower, preferably 1 to 4. Typically the pH value is lower than 4, such as in the range of 3 to 4. […] The tests in FIG. 1 and FIG. 2 were made through mixing natamycin (1%) and cyclodextrin (1%) with water (98%)

In the case of `OC[C@H]1O[C@@H]2O[C@H]3[C@H](O)[C@@H](O)[C@@H](O[C@H]4[C@H](O)[C@@H](O)[C@@H](O[C@H]5[C@H](O)[C@@H](O)[C@@H](O[C@H]6[C@H](O)[C@@H](O)[C@@H](O[C@H]7[C@H](O)[C@@H](O)[C@@H](O[C@H]8[C@H](O)[C@@H](O)[C@@H](O[C@H]9[C@H](O)[C@@H](O)[C@@H](O[C@H]1[C@H](O)[C@H]2O)O[C@@H]9CO)O[C@@H]8CO)O[C@@H]7CO)O[C@@H]6CO)O[C@@H]5CO)O[C@@H]4CO)O[C@@H]3CO` [Variable 2, Gamma-cyclodextrin], the “antifungal activity when applied on baked goods” value [1] is reported as “no antifungal activity”, the “Number of moulded tortillas” value (mould; Day 0) is reported as 0 and the “Number of moulded tortillas” value (mould; Day 5) is reported as 20. The “Number of moulded tortillas” value (mould; Day 6) was 25, the “Number of moulded tortillas” value (mould; Day 7) was 26 and the “Number of moulded tortillas” value (mould; Day 8) was 28. For the same molecule, the “Number of moulded tortillas” value (mould; Day 9) was 28, the “Number of moulded tortillas” value (mould; Day 12) was 30 and the “Number of moulded tortillas” value (mould; Day 13) was 30. For the same molecule, the “Number of moulded tortillas” value (mould; Day 14) was 30, the “Number of moulded tortillas” value (mould; Day 15) was 30 and the “Number of moulded tortillas” value (mould; Day 16) was 30. For the same molecule, the “Number of moulded tortillas” value (mould; Day 19) was 30, the “Number of moulded tortillas” value (mould; Day 20) was 30 and the “Number of moulded tortillas” value (mould; Day 21) was 30. For the same molecule, the “Number of moulded tortillas” value (mould; Day 26) was 30, the “Number of moulded tortillas” value (mould; Day 27) was 30 and the “Number of moulded tortillas” value (mould; Day 28) was 30. For the same molecule, the “Number of moulded tortillas” value (mould; Day 29) was 30 and the “Number of moulded tortillas” value (mould; Day 30) was 30.

In the case of `C[C@@H]1C/C=C/C=C/C=C/C=C/[C@H](O[C@@H]2O[C@H](C)[C@@H](O)[C@H](N)[C@@H]2O)C[C@@H]2O[C@](O)(C[C@@H](O)C[C@H]3O[C@@H]3/C=C/C(=O)O1)C[C@H](O)[C@H]2C(=O)O` [Natamycin], the “concentrations inhibiting most strains” value (yeasts and moulds) is listed as 1-40 ppm, the maximum water solubility [2] is listed as “around 40 ppm” and the “percentage of solubilized natamycin” value [3] is listed as “lower than 4%”.
